US20040203117A1, “Method of expressing genetically modified protein carrying sugar chain having sialic acid added thereto in insect cells” (priority 2001, published 2004)

Legend:
[1] = tested on: α-2,6-linked sialylation of recombinant boIFN-τ in TN5 cells; assay: Lectin blot analysis (HRP-SNA) of sialic acid in recombinant boIFN-τ expressed by TN5 cells; type: cell-based, insect (TN5 cells); details: 2-ADN 0, 0.05, 0.5, 1, 2 and 5 mM; total amount of protein of each lane the same
Method: After TN5 cells were infected with a recombinant baculovirus, they were cultured for 3 days. The supernatant was subjected to Tricine SDS-PAGE performed under reducing conditions (600 ng protein per lane). After the separated protein was transferred on a PVDF membrane, and blocked with PBS containing 1% BSA at 4° C. overnight, the protein was washed with 200 mM Tris-buffered saline (TBS) containing 0.05% Tween 20, and then reacted with 5 μg/ml Sambucus nigra agglutinin labeled with horseradish peroxidase (HRP-SNA, manufactured by EY laboratory) at room temperature for one hour. The carbohydrate reacted was visualized by a Renaissance Western Blot Chemiluminescence Kit (Manufactured by NEN).
To investigate whether or not a sialylated recombinant glycoprotein is produced in insect cells where the GlcNAcase activity is inhibited, the terminal structure of N-glycan of recombinant boIFN-τ was determined by a lectin blot analysis using SNA, which is a lectin capable of recognizing α-2,6-linked sialic acid.

TN5 cells = details: 2-ADN added in a concentration of 5 mM
Method: TN5 cells were cultured in EX-CELL401 medium (manufactured by JRH Bioscience) containing 0 to 5 mM of 2-acetamide-1,2-dideoxynojirimycin (2-ADN) (Tront Research Chemicals Inc.) at 28° C. for 3 days. Subsequently, TN5 (TN5B1-4) cells were infected with the recombinant baculovirus prepared as described above at an moi of 1.0 and subjected to a further culturing in EX-CELL401 medium (manufactured by JRH Bioscience) at 28° C. for 3 days. Thereafter, the supernatant containing recombinant boIFN-τ (rboIFN-τ) was recovered.

[2] = tested on: N-acetylglucosaminidase (GlcNAcase) of TN5 cells; assay: GlcNAcase inhibition assay of TN5 cells (p-nitrophenol release from p-nitrophenyl β-D-acetylglucosamide); type: biochemical, insect (TN5 cells)
Method: The GlcNAcase inhibition assay of TN5 cells was performed as follows.
TN5 cells (2.0×10^7 cells) were washed once with PBS and rinsed with 1 ml of PBS containing 1% Triton-X 100. After centrifugation at 1,000×g for 5 minutes, the supernatant was used as an enzyme source. Fifty μl of the supernatant was mixed with 50 μl of 2-ADN to make a final 2-ADN concentration of 0 to 5 mM. To the solution mixture, 200 μl of a substrate solution (1 mg/ml p-nitrophenyl β-D-acetylglucosamide in 0.2 M citrate/phosphate buffer) was added. The resultant solution was incubated at 37° C. for one hour. The reaction was quenched by adding 1 M Na2CO3, the absorption of released p-nitrophenol was measured at 420 nm. […] Lanes 1 to 6 in the figures show the results obtained at addition amounts of 2-ADN, 0, 0.05, 0.5, 1, 2 and 5 mM, respectively.

[3] = tested on: N-glycosylation of recombinant boIFN-τ in TN5 cells; assay: SDS-PAGE and Western blot of recombinant boIFN-τ from TN5 cells cultured with tunicamycin; type: cell-based, insect (TN5 cells); details: 1 μg/ml tunicamycin, 3 days; only the 19.5 kD molecule observed
Method: The addition of a sugar chain to a recombinant protein, that is, N-glycosylation, was inhibited by culturing the TN5 cells infected with a recombinant baculovirus in a medium containing 1 μg/ml tunicamycin (manufactured by Sigma Chemical Co.) for 3 days.
Twenty μl of the culture supernatant of TN5 cells cultured for 3 days after infection with a recombinant baculovirus was subjected as a sample to Tricine SDS-PAGE performed under reducing conditions in accordance with a method described in Schagger, H. et al., Anal. Biochem. 166, 368-379 (1987). After electrophoresis, the separated protein was stained with Coomassie brilliant blue (CBB)G-250 or blotted on a polyvinylidene difluoride (PDFV) membrane (manufactured by Millipore Corporation). The protein-transferred membrane was blocked with PBS containing 5% skim milk at 4° C. overnight and allowed to react with a 0.2 μg/ml anti-boIFN-τ monoclonal antibody (manufactured by Katakura Industries) at room temperature for one hour, and further incubated with 2000-fold-diluted HPR-rabbit anti-mouse IgG at room temperature. The antibody bound to the protein was visualized by 3,3′-diaminobenzidine staining. The densities of bands obtained after the CBB staining and Western blotting were quantified by using a densitometer.

Row | Compound | SNA-reactive band intensity (sialic acid in recombinant boIFN-τ) [1] | proliferation of cells (TN5 cells) | GlcNAcase activity, dependence on concentration ([2]; 0 to 5 mM 2-ADN) | GlcNAcase activity inhibited ([2]; 5 mM 2-ADN, TN5 cell lysate supernatant, 37° C., one hour) | N-glycosylation of recombinant boIFN-τ [3]
1 | CC(=O)N[C@H]1CN[C@H](CO)[C@@H](O)[C@@H]1O [2-ADN, 2-acetoamide-1,2-dideoxynojirimycin] | increased by adding 2-ADN in a concentration dependent manner | not affected | inhibited by 2-ADN in a concentration-dependent manner | About 80% | –
2 | tunicamycin | – | – | – | – | blocked
